Here are results for two compounds from PMC8125440, “A Novel N-Tert-Butyl Derivatives of Pseudothiohydantoin as Potential Target in Anti-Cancer Therapy” (Molecules, 2021).

Test [1] has as its target T1, 11β-hydroxysteroid dehydrogenase type 2 (11β-HSD2) (Homo sapiens, UniProt P80365).
T1 construct: gene HSD11B2
T1 sequence (P80365 1-405): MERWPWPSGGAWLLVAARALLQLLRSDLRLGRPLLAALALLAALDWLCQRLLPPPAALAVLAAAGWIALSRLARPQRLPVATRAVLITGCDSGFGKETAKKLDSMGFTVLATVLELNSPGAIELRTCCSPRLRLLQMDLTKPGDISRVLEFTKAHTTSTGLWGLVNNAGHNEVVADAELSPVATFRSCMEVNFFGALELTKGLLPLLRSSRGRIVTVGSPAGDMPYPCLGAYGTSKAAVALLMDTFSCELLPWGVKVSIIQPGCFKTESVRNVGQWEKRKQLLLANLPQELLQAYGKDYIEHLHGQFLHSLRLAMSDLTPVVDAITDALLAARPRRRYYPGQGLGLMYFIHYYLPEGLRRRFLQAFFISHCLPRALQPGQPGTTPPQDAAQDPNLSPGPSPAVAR
Description: cortisol to cortisone conversion in human kidney microsomes, cortisol ELISA. It counts as cell-based. On the technique in general: In an ELISA, binding on a coated surface is turned into a signal by an enzyme label.

Test [2] addresses T2, 11β-hydroxysteroid dehydrogenase type 1 (11β-HSD1) (Homo sapiens, UniProt P28845).
T2 construct: gene HSD11B1
Description: cortisone to cortisol conversion in pooled human liver microsomes, cortisol ELISA. It counts as cell-based. A general note: Liver microsomes are vesicles of endoplasmic reticulum, rich in cytochrome P450 enzymes.

Molecules are shown by their SMILES.

T2 sequence (P28845 whole entry): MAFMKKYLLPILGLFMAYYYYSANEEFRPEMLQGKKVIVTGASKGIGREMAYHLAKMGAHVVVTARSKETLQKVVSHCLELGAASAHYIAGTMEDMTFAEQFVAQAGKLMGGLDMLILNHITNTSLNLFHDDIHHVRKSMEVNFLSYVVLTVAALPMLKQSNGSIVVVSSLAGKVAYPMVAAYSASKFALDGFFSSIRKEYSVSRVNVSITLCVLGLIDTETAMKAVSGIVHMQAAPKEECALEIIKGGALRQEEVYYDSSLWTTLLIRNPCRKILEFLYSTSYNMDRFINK

With `CC(C)(C)NC1=NC(=O)C(c2ccccc2)S1` (centres unmarked) [3f, 2-(tert-Butylamino)-5-phenylthiazol-4(5H)-one], testing at 10 µM in test [1] gave an inhibition of 53.6%.

On to `CC(C)(C)NC1=NC(=O)C2(CCCCC2)S1` [3h, 2-(tert-Butylamino)-1-thia-3-azaspiro[4.5]dec-2-en-4-one], for which the inhibition (usually the change of the read-out against control, counted positive when it falls) at 10 µM in test [2] is 82.5%.
